Reference: ChEMBL document CHEMBL1201862, “PubChem BioAssay data set” (2004)
Each block holds one molecule with its values, some of them ahead of it. Activity calls are given as the source filed them.

What was measured:
[1] = target: T1, E3 ubiquitin-protein ligase XIAP (Homo sapiens, UniProt P98170); test: SAR analysis of Antagonists of IAP-family anti-apoptotic proteins. [Related pubchem assays (depositor defined):AID1018, AID1449, AID1513, AID1514, AID1638]
[2] = target: T1, E3 ubiquitin-protein ligase XIAP; test: SAR analysis of Antagonists of XIAP-Bir3 domain of IAP-family anti-apoptotic proteins. [Related pubchem assays (depositor defined):AID1018, AID1449, AID1513, AID1514, AID1638]
[3] = target: Mu-type opioid receptor (Homo sapiens, UniProt P35372); test: SAR Analysis of Agonists of the MOR Receptor using an Image-Based Assay - Set 3. [Related pubchem assays (depositor defined):AID1777, AID1785, AID1786, AID1966, AID2133, AID2136, AID2284, AID2285, AID2352]; assay type: functional
Chain of Mu-type opioid receptor (P35372 whole entry): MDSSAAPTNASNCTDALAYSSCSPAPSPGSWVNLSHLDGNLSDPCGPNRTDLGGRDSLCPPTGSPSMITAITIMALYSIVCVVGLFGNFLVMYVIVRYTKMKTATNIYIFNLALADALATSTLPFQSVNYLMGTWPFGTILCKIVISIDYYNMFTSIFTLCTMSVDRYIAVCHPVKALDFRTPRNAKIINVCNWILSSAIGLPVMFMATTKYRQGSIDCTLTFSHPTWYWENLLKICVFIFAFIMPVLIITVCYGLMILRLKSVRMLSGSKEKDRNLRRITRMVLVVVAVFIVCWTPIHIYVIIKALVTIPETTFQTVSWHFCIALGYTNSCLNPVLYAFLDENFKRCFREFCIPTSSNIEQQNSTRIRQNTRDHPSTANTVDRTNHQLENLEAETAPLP

[4] = target: T2, Kappa-type opioid receptor (Homo sapiens, UniProt P41145); test: SAR analysis of small molecule agonists of the kappa opioid receptor via a luminescent beta-arrestin assay - Set 3. [Related pubchem assays (depositor defined):AID1777, AID1785, AID1786, AID1966, AID2133, AID2136, AID2284, AID2500]; assay type: functional
T2 sequence (P41145 whole entry): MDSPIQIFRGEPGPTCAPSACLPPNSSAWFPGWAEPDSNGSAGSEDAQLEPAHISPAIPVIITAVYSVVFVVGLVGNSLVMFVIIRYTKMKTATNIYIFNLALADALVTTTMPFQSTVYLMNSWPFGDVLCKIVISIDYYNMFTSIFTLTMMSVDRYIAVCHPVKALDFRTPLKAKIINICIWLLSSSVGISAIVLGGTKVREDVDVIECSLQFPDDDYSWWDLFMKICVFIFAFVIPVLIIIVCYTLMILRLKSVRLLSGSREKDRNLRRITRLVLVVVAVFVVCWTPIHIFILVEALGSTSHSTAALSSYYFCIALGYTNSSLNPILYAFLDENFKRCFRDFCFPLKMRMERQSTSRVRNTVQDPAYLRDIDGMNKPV

[5] = target: T2, Kappa-type opioid receptor; test: kappa opioid receptor activation by imaging – image-based, set 3, SAR follow-up (AID 488833); assay type: functional
[6] = target: Delta-type opioid receptor (Homo sapiens, UniProt P41143); test: SAR Analysis of Agonists of the DOR Receptor using an Image-Based Assay - Set 3. [Related pubchem assays (depositor defined):AID1777, AID1786]; assay type: functional
Chain of Delta-type opioid receptor (P41143 whole entry): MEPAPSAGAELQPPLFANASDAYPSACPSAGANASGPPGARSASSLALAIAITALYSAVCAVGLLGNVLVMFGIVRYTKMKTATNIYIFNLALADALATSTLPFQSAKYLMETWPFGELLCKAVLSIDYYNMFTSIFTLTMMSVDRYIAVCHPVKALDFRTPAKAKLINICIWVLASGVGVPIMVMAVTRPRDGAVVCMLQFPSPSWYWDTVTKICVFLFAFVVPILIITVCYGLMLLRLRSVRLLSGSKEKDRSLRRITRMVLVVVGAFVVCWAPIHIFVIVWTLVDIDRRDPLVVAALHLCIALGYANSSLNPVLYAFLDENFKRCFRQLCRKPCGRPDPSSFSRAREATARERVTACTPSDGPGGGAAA

[7] = target: Signal transducer and activator of transcription 1-alpha/beta (Homo sapiens, UniProt P42224); test: STAT3 blockade with qPCR and toxicity readouts – cell-based, STAT1 panel, cytotoxicity, late-stage follow-up, panel member STAT1 Inhibition (AID 2078)
Chain of Signal transducer and activator of transcription 1-alpha/beta (P42224 whole entry): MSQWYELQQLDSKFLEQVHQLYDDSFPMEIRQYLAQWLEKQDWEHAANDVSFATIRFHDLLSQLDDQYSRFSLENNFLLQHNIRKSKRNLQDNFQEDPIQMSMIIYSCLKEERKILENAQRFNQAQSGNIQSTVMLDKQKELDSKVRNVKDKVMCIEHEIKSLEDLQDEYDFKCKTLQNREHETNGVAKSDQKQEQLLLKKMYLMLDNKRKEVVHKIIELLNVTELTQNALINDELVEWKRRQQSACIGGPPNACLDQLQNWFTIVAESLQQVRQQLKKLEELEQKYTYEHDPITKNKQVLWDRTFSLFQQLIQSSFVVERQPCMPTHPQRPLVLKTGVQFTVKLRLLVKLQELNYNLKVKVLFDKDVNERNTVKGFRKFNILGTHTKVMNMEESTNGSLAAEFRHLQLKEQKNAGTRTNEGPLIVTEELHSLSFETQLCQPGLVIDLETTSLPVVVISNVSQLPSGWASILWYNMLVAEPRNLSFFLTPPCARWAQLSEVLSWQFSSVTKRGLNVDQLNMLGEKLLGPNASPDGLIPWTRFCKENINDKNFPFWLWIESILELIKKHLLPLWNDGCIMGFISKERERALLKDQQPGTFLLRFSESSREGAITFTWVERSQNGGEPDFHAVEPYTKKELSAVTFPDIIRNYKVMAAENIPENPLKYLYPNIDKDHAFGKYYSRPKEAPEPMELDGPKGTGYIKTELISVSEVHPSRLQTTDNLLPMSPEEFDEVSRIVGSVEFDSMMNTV

[8] = target: Signal transducer and activator of transcription 3 (Homo sapiens, UniProt P40763); test: STAT3 blockade with qPCR and toxicity readouts – cell-based, STAT1 panel, cytotoxicity, late-stage follow-up, panel member STAT3 Inhibition (AID 2078)
[9] = target: Intestinal-type alkaline phosphatase (Homo sapiens, UniProt P09923); test: human intestinal alkaline phosphatase activators, dose response, biochemical, luminescence, uHTS hits (AID 463120); assay type: functional
[10] = target: T3, Tyrosine-protein phosphatase non-receptor type 22 (Homo sapiens, UniProt Q9Y2R2); assay type: functional
T3 sequence (Q9Y2R2 whole entry): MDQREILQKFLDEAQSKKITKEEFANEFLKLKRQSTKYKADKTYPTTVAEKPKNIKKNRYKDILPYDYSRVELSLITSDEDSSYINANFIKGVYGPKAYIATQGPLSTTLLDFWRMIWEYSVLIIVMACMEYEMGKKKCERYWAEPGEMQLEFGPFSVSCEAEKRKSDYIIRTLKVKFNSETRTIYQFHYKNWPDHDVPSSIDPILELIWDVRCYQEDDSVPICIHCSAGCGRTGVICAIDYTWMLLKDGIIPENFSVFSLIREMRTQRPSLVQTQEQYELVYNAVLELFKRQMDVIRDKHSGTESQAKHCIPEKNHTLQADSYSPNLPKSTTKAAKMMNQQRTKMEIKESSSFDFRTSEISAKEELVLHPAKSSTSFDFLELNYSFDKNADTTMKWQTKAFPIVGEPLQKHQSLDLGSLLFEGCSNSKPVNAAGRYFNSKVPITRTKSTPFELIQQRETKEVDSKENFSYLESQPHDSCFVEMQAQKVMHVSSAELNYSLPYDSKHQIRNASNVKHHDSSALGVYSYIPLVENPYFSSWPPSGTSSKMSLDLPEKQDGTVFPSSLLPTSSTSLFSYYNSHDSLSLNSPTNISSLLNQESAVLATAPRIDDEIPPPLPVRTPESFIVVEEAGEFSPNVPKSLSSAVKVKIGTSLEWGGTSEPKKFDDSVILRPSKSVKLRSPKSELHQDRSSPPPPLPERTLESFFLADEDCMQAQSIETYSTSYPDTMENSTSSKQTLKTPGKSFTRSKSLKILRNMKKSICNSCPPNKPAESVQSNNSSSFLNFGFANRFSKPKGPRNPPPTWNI

[11] = target: T4, Tyrosine-protein phosphatase non-receptor type 7 (Homo sapiens, UniProt P35236); assay type: functional
T4 sequence (P35236 whole entry): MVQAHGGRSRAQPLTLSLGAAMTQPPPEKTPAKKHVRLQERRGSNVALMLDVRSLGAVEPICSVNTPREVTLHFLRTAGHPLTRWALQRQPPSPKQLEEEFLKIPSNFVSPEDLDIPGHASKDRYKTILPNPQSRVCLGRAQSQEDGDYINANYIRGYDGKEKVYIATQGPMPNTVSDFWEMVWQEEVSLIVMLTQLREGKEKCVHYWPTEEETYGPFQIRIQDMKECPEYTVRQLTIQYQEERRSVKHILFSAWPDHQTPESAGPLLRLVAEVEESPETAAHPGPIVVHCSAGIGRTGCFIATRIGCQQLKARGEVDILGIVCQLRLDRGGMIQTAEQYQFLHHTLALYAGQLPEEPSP

[12] = target: T3, Tyrosine-protein phosphatase non-receptor type 22; assay type: functional; remark: listed apart in the source
[13] = tested on: HEK293; test: cells; conditions: Homo sapiens;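 also: cells exposed to compound for 14 hours overnight before viability readout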
[14] = target: Tumor necrosis factor (Homo sapiens, UniProt P01375); test: analog potency on TNFa NF-kB signaling – cell-based, revised, SAR follow-up (AID 2337); assay type: functional
Chain of Tumor necrosis factor (P01375 whole entry, the tested form may be a part): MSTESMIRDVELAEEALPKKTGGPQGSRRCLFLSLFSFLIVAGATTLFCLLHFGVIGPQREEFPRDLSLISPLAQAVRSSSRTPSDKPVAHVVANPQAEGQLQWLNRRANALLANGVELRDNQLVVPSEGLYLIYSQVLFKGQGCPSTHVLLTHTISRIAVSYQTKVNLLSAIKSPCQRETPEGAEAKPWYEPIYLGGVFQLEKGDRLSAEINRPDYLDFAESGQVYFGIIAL

[15] = target: Nucleotide-binding oligomerization domain-containing protein 2 (Homo sapiens, UniProt Q9HC29); test: PubChem AID 2334; assay type: functional
[16] = target: Nucleotide-binding oligomerization domain-containing protein 1 (Homo sapiens, UniProt Q9Y239); test: blockers of NOD1 pathway activity – revised, SAR follow-up (AID 2333); assay type: functional
Chain of Nucleotide-binding oligomerization domain-containing protein 1 (Q9Y239 whole entry, the tested form may be a part): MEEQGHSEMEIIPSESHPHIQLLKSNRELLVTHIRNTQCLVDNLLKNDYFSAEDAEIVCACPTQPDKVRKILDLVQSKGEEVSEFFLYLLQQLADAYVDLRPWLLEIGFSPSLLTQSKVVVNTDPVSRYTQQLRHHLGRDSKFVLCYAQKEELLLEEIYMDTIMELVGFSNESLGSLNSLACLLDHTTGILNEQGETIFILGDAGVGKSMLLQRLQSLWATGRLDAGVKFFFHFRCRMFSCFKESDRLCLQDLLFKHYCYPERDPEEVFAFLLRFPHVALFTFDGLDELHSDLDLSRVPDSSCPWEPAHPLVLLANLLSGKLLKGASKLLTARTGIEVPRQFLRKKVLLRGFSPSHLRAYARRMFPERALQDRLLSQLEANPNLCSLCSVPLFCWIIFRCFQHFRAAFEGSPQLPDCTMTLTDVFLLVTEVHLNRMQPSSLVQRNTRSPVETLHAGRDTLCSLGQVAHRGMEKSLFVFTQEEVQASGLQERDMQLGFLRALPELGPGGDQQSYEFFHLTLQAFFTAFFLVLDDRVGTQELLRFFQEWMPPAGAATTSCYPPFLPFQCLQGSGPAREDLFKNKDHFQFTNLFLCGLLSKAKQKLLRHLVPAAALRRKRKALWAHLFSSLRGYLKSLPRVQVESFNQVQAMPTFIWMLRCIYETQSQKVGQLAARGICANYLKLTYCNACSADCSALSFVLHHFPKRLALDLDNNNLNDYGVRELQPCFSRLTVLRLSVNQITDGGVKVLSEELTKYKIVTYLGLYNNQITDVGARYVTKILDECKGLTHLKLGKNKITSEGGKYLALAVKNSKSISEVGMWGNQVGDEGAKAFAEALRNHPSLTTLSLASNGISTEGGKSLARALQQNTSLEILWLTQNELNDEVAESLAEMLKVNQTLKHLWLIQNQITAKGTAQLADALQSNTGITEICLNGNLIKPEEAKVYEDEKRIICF

[17] = target: Luciferin 4-monooxygenase (Photinus pyralis, UniProt P08659); test: inhibition of purified Photinus pyralis luciferase – biochemical, luminescence, dose response (AID 1891)
[18] = Luminescence Cell-Based Dose Confirmation HTS to Identify Inhibitors of Platelet Dense Granule Release. [Related pubchem assays: 1663 (Primary HTS), 1678 (Summary of Project)]; assay type: functional
[19] = target: T5, Orexin/Hypocretin receptor type 1 (Homo sapiens, UniProt O43613); test: Homogeneous Time Resolved Fluorescence (HTRF)-based cell-based high throughput dose response assay for antagonists of the orexin 1 receptor (OX1R; HCRTR1). [Related pubchem assays (depositor defined):AID434989, AID435008, AID463079, AID485270, AID492963, AID492964, AID492965, AID493232, AID504717, AID504718]; assay type: functional
T5 sequence (O43613 whole entry): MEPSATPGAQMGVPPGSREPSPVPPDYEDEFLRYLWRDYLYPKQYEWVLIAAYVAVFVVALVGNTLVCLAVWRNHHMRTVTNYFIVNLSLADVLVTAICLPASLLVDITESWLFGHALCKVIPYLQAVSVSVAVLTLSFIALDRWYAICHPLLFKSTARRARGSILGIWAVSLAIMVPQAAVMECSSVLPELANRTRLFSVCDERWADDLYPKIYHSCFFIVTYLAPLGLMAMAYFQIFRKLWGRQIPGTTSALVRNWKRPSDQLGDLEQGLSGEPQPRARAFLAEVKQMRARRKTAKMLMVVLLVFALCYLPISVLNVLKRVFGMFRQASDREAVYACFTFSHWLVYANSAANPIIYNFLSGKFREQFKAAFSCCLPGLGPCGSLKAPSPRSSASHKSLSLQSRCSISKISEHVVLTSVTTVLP

[20] = target: T5, Orexin/Hypocretin receptor type 1; test: Fluorescence-based cell-based high throughput dose response assay for antagonists of the orexin 1 receptor (OX1R; HCRTR1). [Related pubchem assays (depositor defined):AID434989, AID435008, AID463079, AID485270, AID492963, AID492964, AID492965, AID493232, AID504717, AID504718]; assay type: functional
[21] = (§1) Counterscreen for antagonists of the orexin 1 receptor (OX1R; HCRTR1): Fluorescence-based cell-based high throughput dose response assay to identify antagonists of the parental CHO cell line. [Related pubchem assays (depositor defined):AID434989, AID435008, AID463079, AID485270, AID492963, AID492964, AID492965, AID493232, AID504699, AID504701]; assay type: functional
[22] = tested on: CHO-K1; test: as §1, with “Homogeneous time resolved fluorescence (HTRF)-based” for “Fluorescence-based”, “cell-based” for “cell-based high throughput”, “CHO-K1” for “CHO”; assay type: functional; conditions: Cricetulus griseus;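 also: potency for inhibition of ATP-stimulated IP1 production as antagonists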
[23] = mitochondrial function rescue without frataxin homolog – Friedreich's ataxia, plus single-dose screen, dose response (AID 1465); assay type: functional;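 also: yeast depleted of Yfh1p frataxin homolog grown on glycerol needing respiration; WST-1 tetrazolium dye reduction as measure of cellular dehydrogenase metabolic activity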

T1 sequence (P98170 whole entry, the tested form may be a part): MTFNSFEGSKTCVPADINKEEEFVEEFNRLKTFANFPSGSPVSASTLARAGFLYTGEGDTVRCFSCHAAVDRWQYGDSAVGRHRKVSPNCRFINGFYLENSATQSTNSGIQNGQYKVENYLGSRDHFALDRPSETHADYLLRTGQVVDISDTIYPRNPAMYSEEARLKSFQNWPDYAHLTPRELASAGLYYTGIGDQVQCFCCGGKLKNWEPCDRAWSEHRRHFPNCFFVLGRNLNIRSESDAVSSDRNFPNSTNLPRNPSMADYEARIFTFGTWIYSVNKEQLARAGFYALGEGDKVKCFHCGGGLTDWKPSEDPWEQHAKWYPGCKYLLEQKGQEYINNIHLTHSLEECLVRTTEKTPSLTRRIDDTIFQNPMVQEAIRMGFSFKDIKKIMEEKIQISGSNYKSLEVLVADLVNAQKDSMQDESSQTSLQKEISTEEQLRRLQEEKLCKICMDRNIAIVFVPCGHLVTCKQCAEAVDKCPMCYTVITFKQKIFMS

- IC50 [1]: 2 µM (active)
- IC50 [2]: 14.3 µM (active)
Structure (SMILES): CN[C@@H](C)C(=O)N[C@H](C(=O)N1CCC[C@H]1C(=O)Nc1ccc2[nH]ccc2c1)C(C)C

- EC50 [3]: > 32 µM (inactive)
- EC50 [4]: 7.89 µM (active)
- EC50 [5]: 20.6 µM (inactive)
- EC50 [6]: > 64 µM (inactive)
Structure (SMILES): Fc1cc(F)cc(CSc2nnc(-c3ccccn3)n2Cc2ccco2)c1

- EC50 [9]: > 100 µM (inactive)
Structure (SMILES): O=C(COc1ccc2ccccc2c1Br)N1CCCCC1

- IC50 [10]: > 79.4 µM (inactive)
- IC50 [11]: > 79.4 µM (inactive)
- IC50 [12]: > 79.4 µM (inactive)
Structure (SMILES): Cc1cc(C)nc(NC(=O)c2cc(-c3ccc(C)s3)nc3ccccc23)c1

Continued, molecule first:

Structure (SMILES): Cc1sc2ncnc(N3CCC(Cc4ccccc4)CC3)c2c1C
- IC50 [7]: > 55.7 µM (inactive)
- IC50 [8]: > 18.6 µM (inactive)

Structure (SMILES): Cc1ccc(C(=O)Nc2sc3c(c2C(=O)O)CCCC3)o1
- IC50 [13]: > 20 µM (inactive)
- IC50 [14]: > 20 µM (inactive)
- IC50 [15]: > 20 µM (inactive)
- IC50 [16]: > 20 µM (inactive)

Structure (SMILES): O=C(N/C(=C/c1cccc(Br)c1)c1nc(S)n[nH]1)c1ccccc1
- EC50 [17]: 28.9 µM (active)
- EC50 [18]: > 112 µM (not active)
- IC50 [19]: > 66.2 µM (inactive)
- IC50 [20]: 16.8 µM (inactive)
- IC50 [21]: 33.3 µM (inactive)
- IC50 [22]: > 66.2 µM (inactive)
- EC50 [23]: > 100 µM (active)
